Laboratory results taken from patent US9326985B2, “Heteroaryl pyridone and aza-pyridone amide compounds” (Genentech, Inc., priority 2013, dated 2016).

What was measured:
[1] = target: T1, full length human wildtype Btk (Homo sapiens, UniProt Q06187); assay: Biochemical Btk Assay (BTK LC3K)
T1 construct: V5 (C); 6xHis (C); made in house; host or cells: Sf9 insect cells (baculovirus, pFastBac)
Method: A generalized procedure for a standard biochemical Btk, Kinase Assay that can be used to test Formula I compounds is as follows. A master mix minus Btk enzyme is prepared containing 1× Cell Signaling kinase buffer (25 mM Tris-HCl, pH 7.5, 5 mM beta-glycerophosphate, 2 mM dithiothreitol, 0.1 mM Na3VO4, 10 mM MgCl2), 0.5 μM Promega PTK Biotinylated peptide substrate 2, and 0.01% BSA. A master mix plus Btk enzyme is prepared containing 1× Cell Signaling kinase buffer, 0.5 μM (micromolar) PTK Biotinylated peptide substrate 2, 0.01% BSA, and 100 ng/well (0.06 mU/well) Btk enzyme. Btk enzyme is prepared as follows: full length human wildtype Btk (accession number NM-000061) with a C-terminal V5 and 6×His tag was subcloned into pFastBac® vector (Invitrogen/Life Technologies) for making baculovirus carrying this epitope-tagged Btk. […] Passage 3 virus is used to infect Sf9 cells to overexpress the recombinant Btk protein. The Btk protein is then purified to homogeneity using Ni-NTA column. […] A solution of 200 μM ATP is prepared in water and adjusted to pH 7.4 with 1N NaOH. A quantity of 1.25 μL (microliter) of compounds in 5% DMSO is transferred to a 96-well ½ area Costar polystyrene plate. Compounds are tested singly and with an 11-point dose-responsive curve (starting concentration is 10 μM; 1:2 dilution). A quantity of 18.75 μL of master mix minus enzyme (as a negative control) and master mix plus enzyme is transferred to appropriate wells in 96-well ½ area costar polystyrene plate. 5 μL of 200 μM ATP is added to that mixture in the 96-well ½ area Costar polystyrene plate for final ATP concentration of 40 μM. The reaction is allowed to incubate for 1 hour at room temperature. The reaction is stopped with Perkin Elmer 1× detection buffer containing 30 mM EDTA, 20 nM SA-APC, and 1 nM PT66 Ab. […] IC50 values are subsequently calculated. Alternatively, the Lanthascreen assay can be used to evaluate Btk activity through quantification of its phosphorylated peptide product. The FRET (Fluorescence Resonance Energy Transfer) that occurs between the fluorescein on the peptide product and the terbium on the detection antibody decreases with the addition of inhibitors of Btk that reduce the phosphorylation of the peptide. In a final reaction volume of 25 uL, Btk (h) (0.1 ng/25 ul reaction) is incubated with 50 mM Hepes pH 7.5, 10 mM MgCl2, 2 mM MnCl2, 2 mM DTT, 0.2 mM NaVO4, 0.01% BSA, and 0.4 uM fluorescein poly-GAT. […] After incubation for 60 minutes at room temperature, the reaction is stopped by the addition of a final concentration of 2 nM Tb-PY20 detection antibody in 60 mM EDTA for 30 minutes at room temperature.

[2] = system: CD69 by B lymphocytes in human whole blood activated with goat F(ab')2 anti-human IgM; assay: CD69 Whole Blood Assay (CD69 Hu Blood FACS); format: cell-based; settings: Lymphocyte, CD69 positive of CD20 positive cells
Method: CD69 is a type II C-type lectin involved in lymphocyte migration and cytokine secretion.
Human blood is obtained from healthy volunteers, with the following restrictions: 1 week drug-free, non-smokers. Blood (approximately 20 mls to test 8 compounds) is collected by venipuncture into Vacutainer® (Becton, Dickinson and Co.) tubes with sodium heparin.
Solutions of Formula I compounds at 10 mM in DMSO are diluted 1:10 in 100% DMSO, then are diluted by three-fold serial dilutions in 100% DMSO for a ten point dose-response curve. The compounds are further diluted 1:10 in PBS and then an aliquot of 5.5 μl of each compound is added in duplicate to a 2 ml 96-well plate; 5.5 μl of 10% DMSO in PBS is added as control and no-stimulus wells. Human whole blood—HWB (100 μl) is added to each well. After mixing the plates are incubated at 37° C., 5% CO2, 100% humidity for 30 minutes. Goat F(ab′)2 anti-human IgM (10 μl of a 500 μg/ml solution, 50 μg/ml final) is added to each well (except the no-stimulus wells) with mixing and the plates are incubated for an additional 20 hours. At the end of the 20 hour incubation, samples are incubated with fluorescent labeled antibodies for 30 minutes, at 37° C., 5% CO2, 100% humidity. Include induced control, unstained and single stains for compensation adjustments and initial voltage settings. Samples are then lysed with PharM Lyse™ (BD Biosciences Pharmingen) according to the manufacturer's instructions. Samples are then transferred to a 96 well plate suitable to be run on the BD Biosciences HTS 96 well system on the LSRII machine. Data acquired and Mean Fluorescence Intensity values were obtained using BD Biosciences DIVA Software. Results are initially analyzed by FACS analysis software (Flow Jo).

T1 sequence (Q06187 whole entry): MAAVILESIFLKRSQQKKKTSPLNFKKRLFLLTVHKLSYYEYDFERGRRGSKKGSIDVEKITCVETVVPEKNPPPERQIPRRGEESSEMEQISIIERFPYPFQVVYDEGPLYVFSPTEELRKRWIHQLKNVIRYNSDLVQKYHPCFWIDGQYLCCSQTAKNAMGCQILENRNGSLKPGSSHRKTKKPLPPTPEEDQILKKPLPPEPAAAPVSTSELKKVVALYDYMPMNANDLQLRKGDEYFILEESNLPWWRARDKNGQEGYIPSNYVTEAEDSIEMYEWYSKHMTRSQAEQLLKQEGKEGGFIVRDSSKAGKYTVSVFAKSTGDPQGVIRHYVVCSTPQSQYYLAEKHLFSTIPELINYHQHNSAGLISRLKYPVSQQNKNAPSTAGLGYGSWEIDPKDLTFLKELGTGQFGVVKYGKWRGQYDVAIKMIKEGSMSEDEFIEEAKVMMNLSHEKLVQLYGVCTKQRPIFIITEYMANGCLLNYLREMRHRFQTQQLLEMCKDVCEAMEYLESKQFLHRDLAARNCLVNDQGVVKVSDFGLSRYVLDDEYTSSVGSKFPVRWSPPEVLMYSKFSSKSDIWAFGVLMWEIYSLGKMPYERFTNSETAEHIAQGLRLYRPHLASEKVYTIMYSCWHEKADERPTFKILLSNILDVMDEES

Row | SMILES | Ki ([1]; Table 2) [nM] | IC50 ([2]; Table 2, anti-IgM stimulation) [nM] | Ki ([1]; Table 1) [nM] | IC50 ([2]; Table 1, anti-IgM stimulation) [nM]
1 | Cn1cc(-c2ccnc(N3CCc4cc(OC(F)(F)F)ccc4C3=O)c2CO)cc(NC(=O)C2CC2)c1=O [Compound 158, N-[5-[3-(hydroxymethyl)-2-[1-oxo-6-(trifluoromethoxy)-3,4-dihydroisoquinolin-2-yl]-4-pyridyl]-1-methyl-2-oxo-3-pyridyl]cyclopropanecarboxamide] | 262 | > 4400 | – | –
2 | CC1CC1C(=O)Nc1cc(-c2ccnc(N3CCn4c(cc5c4CC(C)(C)C5)C3=O)c2CO)cn(C)c1=O (stereo not shown) [Compound 106, N-[5-[2-(7,7-dimethyl-4-oxo-1,2,6,8-tetrahydrocyclopenta[3,4]pyrrolo[3,5-b]pyrazin-3-yl)-3-(hydroxymethyl)-4-pyridyl]-1-methyl-2-oxo-3-pyridyl]-2-methyl-cyclopropanecarboxamide] | – | – | 10.6 | 373
3 | Cn1cc(-c2ccnc(N3CCn4c(cc5c4CC(C)(C)C5)C3=O)c2CO)cc(NC(=O)[C@H]2CC23CC3)c1=O (single isomer, unassigned) [Compound 141] | 5.8 | 1600 | – | –
4 | Cn1cc(-c2ccnc(N3CCn4c(cc5c4CC(C)(C)C5)C3=O)c2CO)cc(NC(=O)CN2CCOCC2)c1=O [Compound 105, N-[5-[2-(7,7-dimethyl-4-oxo-1,2,6,8-tetrahydrocyclopenta[3,4]pyrrolo[3,5-b]pyrazin-3-yl)-3-(hydroxymethyl)-4-pyridyl]-1-methyl-2-oxo-3-pyridyl]-2-morpholino-acetamide] | – | – | > 55.6 | > 5000
5 | Cc1cc(C)n(CC(=O)Nc2cc(-c3ccnc(N4CCn5c(cc6c5CC(C)(C)C6)C4=O)c3CO)cn(C)c2=O)n1 [Compound 108, N-[5-[2-(7,7-dimethyl-4-oxo-1,2,6,8-tetrahydrocyclopenta[3,4]pyrrolo[3,5-b]pyrazin-3-yl)-3-(hydroxymethyl)-4-pyridyl]-1-methyl-2-oxo-3-pyridyl]-2-(3,5-dimethylpyrazol-1-yl)acetamide] | – | – | 51.6 | 2400
6 | Cn1cc(-c2cccc(N3CCn4c(cc5c4CC(C)(C)C5)C3=O)c2CO)cc(NC(=O)C2CC2)c1=O [Compound 129, N-[5-[3-(7,7-dimethyl-4-oxo-1,2,6,8-tetrahydrocyclopenta[3,4]pyrrolo[3,5-b]pyrazin-3-yl)-2-(hydroxymethyl)phenyl]-1-methyl-2-oxo-3-pyridyl]cyclopropanecarboxamide] | 3.78 | 51.2 | – | –
7 | CN1CC[C@@]2(C[C@H]2C(=O)Nc2cc(-c3ccnc(-n4ncc5cc(C(C)(C)C)cc(F)c5c4=O)c3CO)cn(C)c2=O)C1 (single isomer, unassigned) [Compound 175] | 7.6 | > 4800 | – | –
8 | Cn1cc(-c2ccnc(-c3nc4cc(C(C)(C)C)ccc4n3C)c2CO)cc(NC(=O)C2CC2)c1=O [Compound 164, N-[5-[2-(5-tert-butyl-1-methyl-benzimidazol-2-yl)-3-(hydroxymethyl)-4-pyridyl]-1-methyl-2-oxo-3-pyridyl]cyclopropanecarboxamide] | > 500 | > 10600 | – | –
9 | CCNC(=O)Nc1cc(-c2ccnc(N3CCn4c(cc5c4CC(C)(C)C5)C3=O)c2CO)cn(C)c1=O [Compound 159, 1-[5-[2-(7,7-dimethyl-4-oxo-1,2,6,8-tetrahydrocyclopenta[3,4]pyrrolo[3,5-b]pyrazin-3-yl)-3-(hydroxymethyl)-4-pyridyl]-1-methyl-2-oxo-3-pyridyl]-3-ethyl-urea] | 1.6 | 133 | – | –
10 | CCOC1C[C@H]1C(=O)Nc1cc(-c2ccnc(N3CCn4c(cc5c4CC(C)(C)C5)C3=O)c2CO)cn(C)c1=O (single isomer, unassigned) [Compound 143] | 53 | 2200 | – | –
11 | COCC(=O)Nc1cc(-c2ccnc(-n3ncc4cc(C(C)(C)C)cc(F)c4c3=O)c2CO)cn(C)c1=O [Compound 156, N-[5-[2-(6-tert-butyl-8-fluoro-1-oxo-phthalazin-2-yl)-3-(hydroxymethyl)-4-pyridyl]-1-methyl-2-oxo-3-pyridyl]-2-methoxy-acetamide] | 21 | > 4500 | – | –
